Measurements: PubChem BioAssay (NCI)
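Compound exposure: 48 hours, 5 concentrations, 96-well plates. TGI is the concentration that stops growth completely.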

Key:
Assay in all cases: growth of human tumour cells (NCI), 48 h
HT29 colon = system: HT29 colon
SNB-75 CNS = system: SNB-75 CNS
SF-295 CNS = system: SF-295 CNS
HCC-2998 colon = system: HCC-2998 colon
SK-MEL-28 melanoma = system: SK-MEL-28 melanoma
SF-268 CNS = system: SF-268 CNS
HOP-62 NSCLC = system: HOP-62 NSCLC
IGROV1 ovarian = system: IGROV1 ovarian
SNB-19 CNS = system: SNB-19 CNS
M19-MEL melanoma = system: M19-MEL melanoma
KM12 colon = system: KM12 colon
UACC-62 melanoma = system: UACC-62 melanoma
ACHN renal = system: ACHN renal
UO-31 renal = system: UO-31 renal
CCRF-CEM leukemia = system: CCRF-CEM leukemia
K-562 leukemia = system: K-562 leukemia
HL-60(TB) leukemia = system: HL-60(TB) leukemia
HCT-116 colon = system: HCT-116 colon
OVCAR-5 ovarian = system: OVCAR-5 ovarian
LXFL 529 NSCLC = system: LXFL 529 NSCLC
TK-10 renal = system: TK-10 renal
DLD-1 colon = system: DLD-1 colon
SW-620 colon = system: SW-620 colon
NCI-H522 lung = system: NCI-H522 lung
A549 NSCLC = system: A549 NSCLC
HOP-18 NSCLC = system: HOP-18 NSCLC
NCI-H226 lung = system: NCI-H226 lung
A498 renal = system: A498 renal
SK-MEL-5 melanoma = system: SK-MEL-5 melanoma
NCI-H460 lung = system: NCI-H460 lung
UACC-257 melanoma = system: UACC-257 melanoma
SK-OV-3 ovarian = system: SK-OV-3 ovarian
OVCAR-8 ovarian = system: OVCAR-8 ovarian
HOP-92 NSCLC = system: HOP-92 NSCLC
NCI-H23 lung = system: NCI-H23 lung
COLO 205 colon = system: COLO 205 colon
SF-539 CNS = system: SF-539 CNS
OVCAR-3 ovarian = system: OVCAR-3 ovarian
XF 498 CNS = system: XF 498 CNS
786-0 renal = system: 786-0 renal
KM20L2 colon = system: KM20L2 colon
RPMI-8226 leukemia = system: RPMI-8226 leukemia
SN12C renal = system: SN12C renal
CAKI-1 renal = system: CAKI-1 renal
LOX IMVI melanoma = system: LOX IMVI melanoma
MOLT-4 leukemia = system: MOLT-4 leukemia
DMS 273 small cell lung = system: DMS 273 small cell lung
MALME-3M melanoma = system: MALME-3M melanoma
RXF-631 renal = system: RXF-631 renal
SK-MEL-2 melanoma = system: SK-MEL-2 melanoma
M14 melanoma = system: M14 melanoma
SR leukemia = system: SR leukemia
HCT-15 colon = system: HCT-15 colon
OVCAR-4 ovarian = system: OVCAR-4 ovarian
U251 CNS = system: U251 CNS

**Q.** Which TGI (HT29 colon) does the source give for Nc1c(C(=O)N/N=C/c2ccc(Cl)cc2)sc(=S)n1-c1ccccc1 here?
**A.** The TGI was > 100 µM.

**Q.** And the TGI (SNB-75 CNS)?
**A.** Its TGI is > 100 µM.

**Q.** What about the TGI (SF-295 CNS) of the same molecule?
**A.** The TGI was > 100 µM.

**Q.** And the TGI (HCC-2998 colon)?
**A.** The TGI was > 100 µM.

**Q.** And the TGI (SK-MEL-28 melanoma)?
**A.** The TGI was > 100 µM.

**Q.** And the TGI (SF-268 CNS)?
**A.** The TGI was > 100 µM.

**Q.** And the TGI (HOP-62 NSCLC)?
**A.** The TGI was > 100 µM.

**Q.** What about the TGI (IGROV1 ovarian) of the same molecule?
**A.** Its TGI is > 100 µM.

**Q.** What about the TGI (SNB-19 CNS) of the same molecule?
**A.** The TGI was > 100 µM.

**Q.** And the TGI (M19-MEL melanoma)?
**A.** Its TGI is > 100 µM.

**Q.** And the TGI (KM12 colon)?
**A.** Its TGI is > 100 µM.

**Q.** And the TGI (UACC-62 melanoma)?
**A.** The TGI was > 100 µM.

**Q.** What about the TGI (ACHN renal) of the same molecule?
**A.** The TGI was > 100 µM.

**Q.** And the TGI (UO-31 renal)?
**A.** Its TGI is > 100 µM.

**Q.** What about the TGI (CCRF-CEM leukemia) of the same molecule?
**A.** The TGI was > 100 µM.

**Q.** And the TGI (K-562 leukemia)?
**A.** The TGI was > 100 µM.

**Q.** And the TGI (HL-60(TB) leukemia)?
**A.** Its TGI is > 100 µM.

**Q.** And the TGI (HCT-116 colon)?
**A.** Its TGI is > 100 µM.

**Q.** What about the TGI (OVCAR-5 ovarian) of the same molecule?
**A.** Its TGI is > 100 µM.

**Q.** And the TGI (LXFL 529 NSCLC)?
**A.** Its TGI is > 100 µM.

**Q.** And the TGI (TK-10 renal)?
**A.** The TGI was > 100 µM.

**Q.** What about the TGI (DLD-1 colon) of the same molecule?
**A.** The TGI was > 100 µM.

**Q.** What about the TGI (SW-620 colon) of the same molecule?
**A.** Its TGI is > 100 µM.

**Q.** And the TGI (NCI-H522 lung)?
**A.** Its TGI is 91.9 µM.

**Q.** What about the TGI (A549 NSCLC) of the same molecule?
**A.** The TGI was > 100 µM.

**Q.** What about the TGI (HOP-18 NSCLC) of the same molecule?
**A.** Its TGI is > 100 µM.

**Q.** And the TGI (NCI-H226 lung)?
**A.** Its TGI is > 100 µM.

**Q.** And the TGI (A498 renal)?
**A.** The TGI was > 100 µM.

**Q.** And the TGI (SK-MEL-5 melanoma)?
**A.** Its TGI is > 100 µM.

**Q.** What about the TGI (NCI-H460 lung) of the same molecule?
**A.** The TGI was > 100 µM.

**Q.** What about the TGI (UACC-257 melanoma) of the same molecule?
**A.** Its TGI is > 100 µM.

**Q.** And the TGI (SK-OV-3 ovarian)?
**A.** Its TGI is > 100 µM.

**Q.** And the TGI (OVCAR-8 ovarian)?
**A.** The TGI was > 100 µM.

**Q.** And the TGI (HOP-92 NSCLC)?
**A.** Its TGI is > 100 µM.

**Q.** What about the TGI (NCI-H23 lung) of the same molecule?
**A.** The TGI was > 100 µM.

**Q.** And the TGI (COLO 205 colon)?
**A.** The TGI was > 100 µM.

**Q.** And the TGI (SF-539 CNS)?
**A.** The TGI was > 100 µM.

**Q.** And the TGI (OVCAR-3 ovarian)?
**A.** Its TGI is > 100 µM.

**Q.** Which results are given for C[C@]12CCC[C@H](O)[C@H]1C[C@H](CO)CC2?
**A.** TGI (HT29 colon): > 100 µM; TGI (SNB-75 CNS): > 100 µM; TGI (SF-295 CNS): > 100 µM; TGI (HCC-2998 colon): > 100 µM; TGI (SK-MEL-28 melanoma): > 100 µM; TGI (SF-268 CNS): > 100 µM; TGI (HOP-62 NSCLC): > 100 µM; TGI (XF 498 CNS): > 100 µM; TGI (IGROV1 ovarian): > 100 µM; TGI (SNB-19 CNS): > 100 µM; TGI (786-0 renal): > 100 µM; TGI (M19-MEL melanoma): > 100 µM; TGI (KM12 colon): > 100 µM; TGI (UACC-62 melanoma): > 100 µM; TGI (ACHN renal): > 100 µM; TGI (UO-31 renal): > 100 µM; TGI (CCRF-CEM leukemia): > 100 µM; TGI (KM20L2 colon): > 100 µM; TGI (K-562 leukemia): > 100 µM; TGI (RPMI-8226 leukemia): > 100 µM; TGI (HL-60(TB) leukemia): > 100 µM; TGI (HCT-116 colon): > 100 µM; TGI (SN12C renal): > 100 µM; TGI (CAKI-1 renal): > 100 µM; TGI (OVCAR-5 ovarian): > 100 µM; TGI (LXFL 529 NSCLC): > 100 µM; TGI (TK-10 renal): > 100 µM; TGI (LOX IMVI melanoma): > 100 µM; TGI (DLD-1 colon): > 100 µM; TGI (MOLT-4 leukemia): > 100 µM; TGI (SW-620 colon): > 100 µM; TGI (DMS 273 small cell lung): > 100 µM; TGI (NCI-H522 lung): > 100 µM; TGI (A549 NSCLC): > 100 µM; TGI (HOP-18 NSCLC): > 100 µM; TGI (MALME-3M melanoma): > 100 µM; TGI (NCI-H226 lung): > 100 µM; TGI (A498 renal): > 100 µM; TGI (RXF-631 renal): > 100 µM; TGI (NCI-H460 lung): > 100 µM; TGI (SK-MEL-2 melanoma): > 100 µM; TGI (UACC-257 melanoma): > 100 µM; TGI (SK-OV-3 ovarian): > 100 µM; TGI (OVCAR-8 ovarian): > 100 µM; TGI (M14 melanoma): > 100 µM; TGI (HOP-92 NSCLC): > 100 µM; TGI (SR leukemia): > 100 µM; TGI (HCT-15 colon): > 100 µM; TGI (NCI-H23 lung): > 100 µM; TGI (COLO 205 colon): > 100 µM; TGI (SF-539 CNS): > 100 µM; TGI (OVCAR-4 ovarian): > 100 µM; TGI (U251 CNS): > 100 µM; TGI (OVCAR-3 ovarian): > 100 µM
